Reference: ChEMBL document CHEMBL3593231, “3,5-Diarylpyrazole Derivatives Obtained by Ammonolysis of the Total Flavonoids from Chrysanthemum indicum Extract Show Potential for the Treatment of Alzheimer's Disease” (J Nat Prod, 2015)
pIC50: −log10 of the molar value. Activity calls are given as the source filed them. No cut-off for these calls is given here.

How the values were obtained:
[1] = biological target: T1, Amyloid-beta precursor protein (Homo sapiens, UniProt P05067); test: Potency index, ratio of curcumin IC50 to compound IC50 for inhibition of amyloid beta (1 to 42) (unknown origin) aggregation
[2] = biological target: T1, Amyloid-beta precursor protein; test: Inhibition of amyloid beta (1 to 42) (unknown origin) aggregation after 48 hrs by thioflavin T fluorescence assay
[3] = system: SH-SY5Y; test: Neuroprotective activity against amyloid beta (1 to 42)-induced cytotoxicity in human SH-SY5Y cells at 5 to 80 uM after 48 hrs by MTT assay; type: functional, cell-based
[4] = system: SH-SY5Y; test: Cytotoxicity against human SH-SY5Y cells assessed as cell viability at 10 uM after 48 hrs by MTT assay; type: cell-based

T1 sequence (P05067 whole entry): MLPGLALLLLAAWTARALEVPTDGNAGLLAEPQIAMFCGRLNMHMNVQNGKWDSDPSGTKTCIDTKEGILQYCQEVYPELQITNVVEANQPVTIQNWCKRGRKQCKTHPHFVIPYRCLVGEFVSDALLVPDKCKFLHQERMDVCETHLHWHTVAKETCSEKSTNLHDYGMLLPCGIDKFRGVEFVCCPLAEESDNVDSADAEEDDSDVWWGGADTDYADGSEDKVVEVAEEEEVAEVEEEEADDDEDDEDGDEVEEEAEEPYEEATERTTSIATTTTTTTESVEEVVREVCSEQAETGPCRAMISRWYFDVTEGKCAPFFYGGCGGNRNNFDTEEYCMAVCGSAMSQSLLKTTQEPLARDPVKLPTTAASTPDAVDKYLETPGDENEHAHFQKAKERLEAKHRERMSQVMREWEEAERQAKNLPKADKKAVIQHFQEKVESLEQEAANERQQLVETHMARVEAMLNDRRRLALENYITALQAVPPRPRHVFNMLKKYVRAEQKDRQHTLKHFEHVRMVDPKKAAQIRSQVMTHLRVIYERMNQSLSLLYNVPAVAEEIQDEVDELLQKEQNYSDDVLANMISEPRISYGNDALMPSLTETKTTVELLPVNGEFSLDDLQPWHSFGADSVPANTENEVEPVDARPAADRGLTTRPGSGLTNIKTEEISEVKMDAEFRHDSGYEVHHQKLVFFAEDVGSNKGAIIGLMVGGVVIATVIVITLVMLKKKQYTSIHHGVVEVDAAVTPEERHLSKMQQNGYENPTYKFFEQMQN

| SMILES | Ratio IC50 [1] | pIC50 [2] | Activity [3] | Activity [4] |
| --- | --- | --- | --- | --- |
| Oc1ccc(-c2cc(-c3c(O)cccc3O)[nH]n2)cc1O | 3 | 5.89 | Active | Non-toxic |
| COc1cc(-c2cc(-c3c(O)cccc3O)[nH]n2)ccc1O | – | 5.37 | – | Non-toxic |
| COc1cc(-c2cc(-c3c(O)cccc3O)[nH]n2)cc(OC)c1O | – | 5.54 | – | Non-toxic |
| Oc1ccc(-c2cc(-c3c(O)cccc3O)[nH]n2)cc1 | – | 4.80 | – | – |
